The target in this assay is T1, PAR4 (protease-activated receptor 4) (Homo sapiens, UniProt Q96RI0).
T1 sequence (Q96RI0 48-385): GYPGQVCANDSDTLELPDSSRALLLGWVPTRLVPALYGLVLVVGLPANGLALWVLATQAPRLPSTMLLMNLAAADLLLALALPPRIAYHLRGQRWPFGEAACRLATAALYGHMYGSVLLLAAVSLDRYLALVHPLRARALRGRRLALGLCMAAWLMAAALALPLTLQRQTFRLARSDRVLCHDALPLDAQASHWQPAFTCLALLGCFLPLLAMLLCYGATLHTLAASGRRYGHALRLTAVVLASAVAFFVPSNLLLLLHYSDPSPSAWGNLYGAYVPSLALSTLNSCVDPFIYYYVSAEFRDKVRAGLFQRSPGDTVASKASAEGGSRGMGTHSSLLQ
As to the kind of experiment: inhibition of human platelet activation by […] gamma-thrombin. It is filed as cell-based.

Turning to VU0661245, the IC50 came out at 8.42 nM. This counts as single-digit nanomolar.

Values taken from article PMC6397092 (Platelets, 2018).
